Assay results as given in patent US7157620B2, “Enhanced transformation and regeneration of transformed embryogenic pine tissue” (Mead Westvaco Corporation, priority 2000, dated 2007).

What was measured:
[1] = tested on: P. taeda embryogenic cell lines; experiment: Effect of ABA in preparation, recovery and selection media on transformants after Agrobacterium inoculation; format: cell-based, Pinus taeda
Description: (§1) Seven loblolly pine cell lines or hybrid cell lines from seven widely diverse genetic backgrounds were used which had been grown, maintained, and transformed using Agrobacterium as described in Example 1 above except that the preparation medium, used for preparation and co-cultivation of the cells, either contained or lacked ABA. Following eradication using wash medium as described in Example 5 above, polyester support membranes bearing approximately 0.1 g of embryogenic tissue were divided onto recovery media either containing or lacking ABA. […] Concentrations of ABA used in all these media were 0, 10, and 30 mg/L.
(§2) Cells were maintained on the selection media, with transfer of the polyester support membranes to fresh selection media of the same composition, every two weeks for a total of eight weeks of selection. […] The cells were also checked for the presence of sequences by PCR amplification using primers specific for both the uidA and nptII transgenes, techniques well known to those skilled in the art of plant transformation.

[2] = tested on: P. rigida hybrid embryogenic cell line; experiment: as above; format: cell-based; conditions: line H1
Description: as §1, §2

Loblolly pine cell lines = experiment: ABA in selection media after biolistic transformation; format: cell-based, Pinus taeda
Description: Loblolly pine cell lines were used which had been grown and maintained as described in Example 1 above, and prepared for biolistic transformation as described in Example 4 above. Following bombardment the support membranes bearing the bombarded embryogenic cells were transferred to DCR2 maintenance media for one week. Following this the support membranes bearing the bombarded embryogenic cells were divided among plates containing gelled DCR selection medium either with or without the addition of 10 mg/l abscisic acid (ABA), and cultured for three weeks. Cells selected on either type of selection medium during this first selection period on selection medium containing ABA were then divided among plates with and without ABA and cultured for a further three weeks. The same occurred in the next transfer, resulting in groups of cells that had been selected entirely in the absence of ABA, entirely in the presence of ABA, or in the presence of ABA for one of the three three-week selection periods.

CC1=CC(=O)CC(C)(C)[C@@]1(O)/C=C/C(C)=C\C(=O)O [ABA, abscisic acid]
effect of ABA in the preparation medium on the observation of transformants ([1]; 10 or 30 mg/L ABA): neutral or beneficial
necrotic foci in somatic embryogenic masses versus media without ABA ([1]; 10 or 30 mg/L ABA during and after co-cultivation, all lines): fewer necrotic foci
Average (n = 12) number of transformants observed per selection plate ([1]; line P1, ABA mg/l preparation/recovery/selection medium 0/0/10): 0.3
Average (n = 12) number of transformants observed per selection plate ([1]; line P1, ABA mg/l preparation/recovery/selection medium 0/0/30): 0.0
Average (n = 12) number of transformants observed per selection plate ([1]; line P1, ABA mg/l preparation/recovery/selection medium 0/10/10): 0.0
Average (n = 12) number of transformants observed per selection plate ([1]; line P1, ABA mg/l preparation/recovery/selection medium 0/10/30): 0.1
Average (n = 12) number of transformants observed per selection plate ([1]; line P1, ABA mg/l preparation/recovery/selection medium 0/30/30): 0.8
Average (n = 12) number of transformants observed per selection plate ([1]; line P1, ABA mg/l preparation/recovery/selection medium 10/10/10): 1.3
Average (n = 12) number of transformants observed per selection plate ([1]; line P1, ABA mg/l preparation/recovery/selection medium 30/10/10): 0.3
Average (n = 12) number of transformants observed per selection plate ([1]; line P1, ABA mg/l preparation/recovery/selection medium 30/30/30): 0.4
Average (n = 12) number of transformants observed per selection plate ([1]; line P2, ABA mg/l preparation/recovery/selection medium 0/0/10): 5.8
Average (n = 12) number of transformants observed per selection plate ([1]; line P2, ABA mg/l preparation/recovery/selection medium 0/0/30): 8.8
Average (n = 12) number of transformants observed per selection plate ([1]; line P2, ABA mg/l preparation/recovery/selection medium 0/10/10): 1.0
Average (n = 12) number of transformants observed per selection plate ([1]; line P2, ABA mg/l preparation/recovery/selection medium 0/10/30): 0.3
Average (n = 12) number of transformants observed per selection plate ([1]; line P2, ABA mg/l preparation/recovery/selection medium 0/30/30): 5.2
Average (n = 12) number of transformants observed per selection plate ([1]; line P2, ABA mg/l preparation/recovery/selection medium 10/10/10): 10.0
Average (n = 12) number of transformants observed per selection plate ([1]; line P2, ABA mg/l preparation/recovery/selection medium 30/10/10): 5.9
Average (n = 12) number of transformants observed per selection plate ([1]; line P2, ABA mg/l preparation/recovery/selection medium 30/30/30): 5.3
Average (n = 12) number of transformants observed per selection plate ([1]; line P3, ABA mg/l preparation/recovery/selection medium 0/0/10): 21.7
Average (n = 12) number of transformants observed per selection plate ([1]; line P3, ABA mg/l preparation/recovery/selection medium 0/0/30): 22.3
Average (n = 12) number of transformants observed per selection plate ([1]; line P3, ABA mg/l preparation/recovery/selection medium 0/10/10): 23.3
Average (n = 12) number of transformants observed per selection plate ([1]; line P3, ABA mg/l preparation/recovery/selection medium 0/10/30): 26.0
Average (n = 12) number of transformants observed per selection plate ([1]; line P3, ABA mg/l preparation/recovery/selection medium 0/30/30): 18.6
Average (n = 12) number of transformants observed per selection plate ([1]; line P3, ABA mg/l preparation/recovery/selection medium 10/10/10): 22.6
Average (n = 12) number of transformants observed per selection plate ([1]; line P3, ABA mg/l preparation/recovery/selection medium 30/10/10): 21.6
Average (n = 12) number of transformants observed per selection plate ([1]; line P3, ABA mg/l preparation/recovery/selection medium 30/30/30): 21.1
Average (n = 12) number of transformants observed per selection plate ([1]; line P4, ABA mg/l preparation/recovery/selection medium 0/0/10): 27.5
Average (n = 12) number of transformants observed per selection plate ([1]; line P4, ABA mg/l preparation/recovery/selection medium 0/0/30): 34.9
Average (n = 12) number of transformants observed per selection plate ([1]; line P4, ABA mg/l preparation/recovery/selection medium 0/10/10): 28.8
Average (n = 12) number of transformants observed per selection plate ([1]; line P4, ABA mg/l preparation/recovery/selection medium 0/10/30): 30.9
Average (n = 12) number of transformants observed per selection plate ([1]; line P4, ABA mg/l preparation/recovery/selection medium 0/30/30): 28.6
Average (n = 12) number of transformants observed per selection plate ([1]; line P4, ABA mg/l preparation/recovery/selection medium 10/10/10): 27.8
Average (n = 12) number of transformants observed per selection plate ([1]; line P4, ABA mg/l preparation/recovery/selection medium 30/10/10): 22.7
Average (n = 12) number of transformants observed per selection plate ([1]; line P4, ABA mg/l preparation/recovery/selection medium 30/30/30): 27.3
Average (n = 12) number of transformants observed per selection plate ([1]; line P5, ABA mg/l preparation/recovery/selection medium 0/0/10): 18.1
Average (n = 12) number of transformants observed per selection plate ([1]; line P5, ABA mg/l preparation/recovery/selection medium 0/0/30): 5.5
Average (n = 12) number of transformants observed per selection plate ([1]; line P5, ABA mg/l preparation/recovery/selection medium 0/10/10): 2.4
Average (n = 12) number of transformants observed per selection plate ([1]; line P5, ABA mg/l preparation/recovery/selection medium 0/10/30): 7.2
Average (n = 12) number of transformants observed per selection plate ([1]; line P5, ABA mg/l preparation/recovery/selection medium 0/30/30): 3.3
Average (n = 12) number of transformants observed per selection plate ([1]; line P5, ABA mg/l preparation/recovery/selection medium 10/10/10): 10.3
Average (n = 12) number of transformants observed per selection plate ([1]; line P5, ABA mg/l preparation/recovery/selection medium 30/10/10): 11.3
Average (n = 12) number of transformants observed per selection plate ([1]; line P5, ABA mg/l preparation/recovery/selection medium 30/30/30): 14.3
Average (n = 12) number of transformants observed per selection plate ([1]; line P6, ABA mg/l preparation/recovery/selection medium 0/0/10): 3.9
Average (n = 12) number of transformants observed per selection plate ([1]; line P6, ABA mg/l preparation/recovery/selection medium 0/0/30): 3.3
Average (n = 12) number of transformants observed per selection plate ([1]; line P6, ABA mg/l preparation/recovery/selection medium 0/10/10): 3.2
Average (n = 12) number of transformants observed per selection plate ([1]; line P6, ABA mg/l preparation/recovery/selection medium 0/10/30): 3.2
Average (n = 12) number of transformants observed per selection plate ([1]; line P6, ABA mg/l preparation/recovery/selection medium 0/30/30): 2.3
Average (n = 12) number of transformants observed per selection plate ([1]; line P6, ABA mg/l preparation/recovery/selection medium 10/10/10): 4.5
Average (n = 12) number of transformants observed per selection plate ([1]; line P6, ABA mg/l preparation/recovery/selection medium 30/10/10): 3.1
Average (n = 12) number of transformants observed per selection plate ([1]; line P6, ABA mg/l preparation/recovery/selection medium 30/30/30): 2.3
Average (n = 12) number of transformants observed per selection plate ([2]; ABA mg/l preparation/recovery/selection medium 0/0/10): 27.0
Average (n = 12) number of transformants observed per selection plate ([2]; ABA mg/l preparation/recovery/selection medium 0/0/30): 21.1
Average (n = 12) number of transformants observed per selection plate ([2]; ABA mg/l preparation/recovery/selection medium 0/10/10): 19.0
Average (n = 12) number of transformants observed per selection plate ([2]; ABA mg/l preparation/recovery/selection medium 0/10/30): 21.6
Average (n = 12) number of transformants observed per selection plate ([2]; ABA mg/l preparation/recovery/selection medium 0/30/30): 15.1
Average (n = 12) number of transformants observed per selection plate ([2]; ABA mg/l preparation/recovery/selection medium 10/10/10): 21.9
Average (n = 12) number of transformants observed per selection plate ([2]; ABA mg/l preparation/recovery/selection medium 30/10/10): 22.9
Average (n = 12) number of transformants observed per selection plate ([2]; ABA mg/l preparation/recovery/selection medium 30/30/30): 21.8
transformants from a cell line of progeny of the P. taeda elite line 7–56 (Loblolly pine cell lines; 10 mg/L ABA in selection medium): observed only on treatments that had contained ABA in the selection medium
number of transformants obtained when ABA was present during the entire selection period (Loblolly pine cell lines; 10 mg/l ABA in DCR selection medium, nine weeks, all lines tested): equal to or greater than the number obtained for any other treatment
